The text below walks through data of ChEMBL document CHEMBL1143566, “Discovery of a potent and selective inhibitor of cyclin-dependent kinase 4/6” (J Med Chem, 2005).

Experiment [1] can be described thus: Inhibition of Cyclin dependent kinase 2-cyclinA.
In experiment [2] the test system is MDA-MB-435. The experiment is described as follows: Inhibitory concentration was measured by the incorporation of [14C]-thymidine in (human breast carcinoma) MDA-MB-435 cell line. The format is functional, cell-based.
The target of experiment [3] is Cyclin-dependent kinase 2/cyclin A (Homo sapiens, UniProt P24941).
Description: Inhibition of Cyclin dependent kinase 2-cyclin A
For experiment [4], the target named is T1, Cyclin-dependent kinase 4/cyclin D (Homo sapiens, UniProt P11802).
Description: Inhibition of Cyclin-dependent kinase 4-cyclinD
Experiment [5] deals with MDA-MB-435. The experiment is described as follows: Inhibitory concentration was measured by the incorporation of [14C]thymidine in (human breast carcinoma) MDA-MB-435. The format is functional, cell-based.
The test system of experiment [6] is MDA-MB-468. The experiment is described as follows: Inhibitory concentration was measured by the incorporation of [14C]thymidine in (human breast carcinoma) MDA-MB-468 cell line. Format: functional, cell-based.
Experiment [7] addresses Fibroblast growth factor receptor (Homo sapiens, UniProt P22607+P11362+P22455+P21802). The experiment is described as follows: Inhibition of Fibroblast growth factor receptor. The format is protein assay.
Experiment [8] deals with T1, Cyclin-dependent kinase 4/cyclin D. The experiment is described as follows: Inhibition of [gamma-32P]-ATP binding to Cyclin dependant kinase 4-cyclinD. The format is protein-complex assay.
Experiment [9] concerns MDA-MB-435. The experiment is described as follows: In vitro inhibitory concentration was measured by the incorporation of [14C]thymidine in (human breast carcinoma) MDA-MB-435 cell line. The format is functional, cell-based.
Experiment [10] can be described thus: Inhibition of PDGF receptor.
The target of experiment [11] is Cyclin-dependent kinase 2/cyclin E (Homo sapiens, UniProt P24941). The experiment is described as follows: Inhibition of Cyclin dependent kinase 2-cyclin E. The format is protein-complex assay.
Experiment [12] concerns MDA-MB-468. The experiment is described as follows: In vitro inhibitory concentration was measured by the incorporation of [14C]thymidine in (human breast carcinoma) MDA-MB-468 cell line. Format: functional, cell-based.

Each structure is given as a SMILES string. pIC50: −log10 of the molar value.

By pIC50 is commonly meant the negative decadic logarithm of the IC50, by convention in mol/L. For orientation: IC50 means the concentration at which inhibition is half-maximal. A high value points to lower potency.

On to `O=c1ccc2cnc(Nc3ccccc3)nc2n1C1CCCC1`, for which the pIC50 in experiment [1] is 7.92.
As for `COCc1cc2cnc(Nc3ccc(N4CCNCC4)cn3)nc2n(C2CCCC2)c1=O`, the values for the pIC50 in experiment [2], in experiment [3] and in experiment [4] were 6.48, 5.42 and 7.89, respectively.
As for `Cc1cc2cnc(Nc3ccc(N4CCNCC4)cn3)nc2n(C2CCCC2)c1=O`, in [2], the pIC50 is 6.54.
For the molecule `CC(=O)c1cc2cnc(Nc3ccc(N4CCNCC4)cn3)nc2n(C2CCCC2)c1=O`, the pIC50 in experiment [5] is 5.56.
With `COCCN(CCOC)c1ccc(Nc2ncc3c(C)c(C(C)=O)c(=O)n(C4CCCC4)c3n2)nc1`, the pIC50 in experiment [3] was 5.69; in experiment [4], 7.29.
For the molecule `COCCOCc1cc2cnc(Nc3ccc(N4CCNCC4)cn3)nc2n(C2CCCC2)c1=O`, in experiment [2], the negative-log IC50 (pIC50) was 5.67.
Molecule `CCOC(=O)c1c(C)c2cnc(Nc3ccc(N4CCNCC4)cn3)nc2n(C2CCCC2)c1=O` showed a pIC50 in experiment [4] of 7.31.
Molecule `Cc1c(Br)c(=O)n(C2CCCC2)c2nc(Nc3ccc(N4CC(C)NC(C)C4)cn3)ncc12` (stereo unspecified) gave a pIC50 in experiment [5] of 6.24.
Regarding `CCc1cc2cnc(Nc3ccc(N4CCNCC4)cn3)nc2n(C2CCCC2)c1=O`, the pIC50 is 5.97 in experiment [2], less than 5.30 in [3] and 7.66 in [4].
On to `O=c1c(Br)cc2cnc(Nc3ccc(N4CCNCC4)cc3)nc2n1C1CCCC1`, for which the figures for the pIC50 in experiment [2], in [6] and in experiment [7] (read-out: IC50) were 7.70, 6.22 and 7.10, respectively.
On to `CCOCCOc1cc2cnc(Nc3ccc(N4CCNCC4)cn3)nc2n(C2CCCC2)c1=O`, for which the negative logarithm of the IC50 (pIC50) in experiment [8] is 7.43.
In turn, `CC(=O)c1c(C)c2cnc(Nc3ccc(N4CCN(C)CC4)cn3)nc2n(C2CCCC2)c1=O` gave a pIC50 in [2] of 6.49.
As for `Cc1c(Br)c(=O)n(C2CCCC2)c2nc(Nc3ccc(N4CCC(O)CC4)cn3)ncc12`, the pIC50 in experiment [5] was 5.85.
As for `CC(=O)c1c(C)c2cnc(Nc3ccc(N4C(C)COCC4C)cn3)nc2n(C2CCCC2)c1=O` (stereo unspecified), the pIC50 in [9] was 5.69; in [3], less than 5.30; in experiment [4], 7.52.
On to `O=c1c(Br)cc2cnc(Nc3ccc(N4CCNCC4)cn3)nc2n1C1CCCC1`, for which the pIC50 in [10] is less than 5.30; in [2] it was 7.05; in experiment [11] it was less than 5.30; in experiment [6], less than 5.52; in experiment [3], less than 5.30. In [7], this molecule gave an IC50 greater than 5000 nM.
In the case of `CC(=O)c1c(C)c2cnc(Nc3ccc(N4CC(C)NC(C)C4)cn3)nc2n(C2CCCC2)c1=O` (stereo unspecified), the pIC50 in experiment [5] was 6.24.
`O=c1c(CO)cc2cnc(Nc3ccc(N4CCNCC4)cn3)nc2n1C1CCCC1`: the pIC50 in [2] was 6.25.
As to `CC(=O)c1c(C)c2cnc(Nc3ccc(N4CCCCC4)cn3)nc2n(C2CCCC2)c1=O`, the pIC50 in experiment [5] is 5.71.
In experiment [2], `CC(=O)c1c(C)c2cnc(Nc3ccc(N4CCCNCC4)cn3)nc2n(C2CCCC2)c1=O` had a pIC50 of 7.15.
In turn, `CC(=O)c1c(C)c2cnc(Nc3ccc(N4CCC(N)C4)cn3)nc2n(C2CCCC2)c1=O` (stereo unspecified) gave a pIC50 in experiment [2] of 6.47.
In experiment [4], `Cc1c(Br)c(=O)n(C2CCCC2)c2nc(Nc3ccccn3)ncc12` gave a pIC50 of less than 5.30.
Take `O=c1c(F)cc2cnc(Nc3ccc(N4CCNCC4)cn3)nc2n1C1CCCC1`: in experiment [2], the pIC50 was 5.96.
Take `CC(=O)c1c(C)c2cnc(Nc3ccc(N4CCNCC4)cc3)nc2n(C2CCCC2)c1=O`: the pIC50 in [12] is 5.96; in experiment [9], 7.52; in experiment [3] it was 6.64.
In the case of `Nc1cc2cnc(Nc3ccc(N4CCNCC4)cn3)nc2n(C2CCCC2)c1=O`, the pIC50 in experiment [2] is 6.72; in [3], less than 5.30; in experiment [4] it was 7.72.
`CC(=O)c1c(C)c2cnc(Nc3ccc(N4CCOCC4)cn3)nc2n(C2CCCC2)c1=O` gave a pIC50 in experiment [5] of 6.66.
`CCOCc1cc2cnc(Nc3ccc(N4CCNCC4)cn3)nc2n(C2CCCC2)c1=O`: the pIC50 in [2] was 6.00.
For `CC(=O)c1c(C)c2cnc(Nc3ccc(N4CCNC(C)(C)C4)cn3)nc2n(C2CCCC2)c1=O`, the pIC50 in [5] was 6.38.
On to `CC(=O)c1c(C)c2cnc(Nc3ccc(N4CCC(O)CC4)cn3)nc2n(C2CCCC2)c1=O`, for which the pIC50 in experiment [2] was 6.70.
In the case of `CC(C)n1c(=O)ccc2cnc(Nc3ccc(N4CCNCC4)cn3)nc21`, the pIC50 in experiment [4] is less than 5.30.
In the case of `Cc1c(Br)c(=O)n(C2CCCC2)c2nc(Nc3ccc(N4CCCNCC4)cn3)ncc12`, the pIC50 in experiment [3] and in [4] was less than 5.30 in each case.
Regarding `CC(=O)c1c(C)c2cnc(Nc3ccc(N4CCNCC4)cn3)nc2n(C2CCCC2)c1=O` [PALBOCICLIB], the pIC50 in [2] was 6.80; in experiment [6], less than 5.52.
